From US20140194353A1, “COMPOSITIONS AND METHODS FOR THE TREATMENT OF NERVOUS DISORDERS ASSOCIATED WITH DIABETES” (Joslin Diabetes Center, Inc., priority 2010, published 2014)

What was measured:
cultured neurons = experiment: Pharmacological inhibition of insulin signaling pathways, cholesterol synthetic gene expression; type: cell-based, mouse
STZ-diabetic mice [1] = experiment: Blood glucose levels in STZ-diabetic mice; type: in vivo, mouse
Procedure: (§1) For STZ-induced diabetes and systemic insulin therapy experiments, 7-week-old C57Bl/6 mice were treated with a single intraperitoneal (i.p.) injection (200 μg/g body weight) of STZ (Sigma). After 2 days, the mice were separated into two groups. Half remained untreated, and the other half were treated with subcutaneous insulin pellets (LinShin, Toronto, Canada) for one week to control blood glucose levels. For phlorizin (PHZ) treatment, 8-week-old C57Bl/6 mice were treated with STZ. PHZ (Sigma) was dissolved in a solution containing 10% ethanol, 15% DMSO, and 75% saline and was injected subcutaneously (0.4 g/kg) twice daily for 10 days starting 8 days after the STZ injection. Control mice were injected with the same volume of vehicle.
(§2) To determine whether hyperglycemia or insulin insufficiency was predominantly responsible for the above-observed suppression of cholesterol synthesis pathway in the diabetic mouse brain, we treated the STZ-induced diabetic mice with phlorizin (PHZ), a flavonoid which can decrease blood glucose levels by inhibition of renal glucose transport without restoring insulin secretion using the methods disclosed in Example 1. Additionally, phlorizin (PHZ) treatment was performed using 8-week-old C57Bl/6 mice previously treated with STZ. […] Control mice were injected with the same volume of vehicle. mRNA levels were then assessed by qPCR as disclosed in Example 1. […]

[2] = tested on: SREBP-2 and its downstream cholesterologenic genes in the hypothalamus; experiment: qPCR of Srebf2 and cholesterologenic genes in hypothalami of STZ-diabetic mice; type: in vivo, mouse
Procedure: as §1
For qPCR, RNA was isolated using an RNeasy kit (Qiagen). As a template, 1 μg (for tissue) or 0.2 μg (for glia and neurons) of total RNA was reverse-transcribed in 50 μl using a High Capacity cDNA Reverse Transcription Kit (Applied Biosystems) according to the manufacturer's instructions. […] Analysis of gene expression was done in the ABI PRISM 7000 sequence detector with an initial denaturation at 95° C. for 10 minutes followed by 40 PCR cycles, each cycle consisting of 95° C. for 15 seconds and 60° C. for 1 minute, and SYBR Green fluorescence emissions were monitored after each cycle. For each gene, mRNA expression was calculated relative to Tbp (mouse) or ribosomal 18S (human) expression as an internal control.
as §2, with “1.” for “1. Additionally, phlorizin (PHZ) treatment was performed using 8-week-old C57Bl/6 mice previously treated with STZ.”

[3] = tested on: Pomc, Agrp, Npy expression; experiment: qPCR of neuropeptides regulating appetite in hypothalamus after insulin ICV injection; type: in vivo, mouse; conditions: STZ-diabetic mice
Procedure: (§3) For qPCR, RNA was isolated using an RNeasy kit (Qiagen). As a template, 1 μg (for tissue) or 0.2 μg (for glia and neurons) of total RNA was reverse-transcribed in 50 μl using a High Capacity cDNA Reverse Transcription Kit (Applied Biosystems) according to the manufacturer's instructions. Three microliters of diluted (1/4) reverse transcription reaction was amplified with specific primers (300 nM each) in a 25 μl PCR with a SYBR Green PCR Master Mix (Applied Biosystems). Analysis of gene expression was done in the ABI PRISM 7000 sequence detector with an initial denaturation at 95° C. for 10 minutes followed by 40 PCR cycles, each cycle consisting of 95° C. for 15 seconds and 60° C. for 1 minute, and SYBR Green fluorescence emissions were monitored after each cycle. For each gene, mRNA expression was calculated relative to Tbp (mouse) or ribosomal 18S (human) expression as an internal control.
To assess the effects of insulin, we directly administered insulin into the cerebral ventricles of STZ-induced diabetic mice by 3 injections of insulin into a catheter placed in the lateral ventricle. […] Food intake was measured immediately before the ICV injection. Four hours after the last injection, blood glucose levels were measured, and the hypothalami collected.

[4] = tested on: primary mouse cultured cortical neurons and glia; experiment: Insulin stimulation of primary cultured cortical neurons and glia, qPCR of cholesterologenic genes; type: cell-based
Procedure: as §3
To dissect the cell type and factors regulating the changes in cholesterol biosynthesis, neuron and glial cells (astrocytes) were isolated and cultured from the cortices of 16-day-old C57Bl/6 mouse embryos and 1-day-old neonates, respectively. Briefly, the cerebral cortex was dissected from 0-1 day old for glia and day 16 embryonic C57Bl/6 mice under aseptic conditions. Large blood vessels were carefully removed under the microscope. […]

STZ-diabetic mice [5] = experiment: Food intake after ICV injection in STZ-diabetic mice; type: in vivo, mouse; conditions: insulin ICV injection
Source text: To assess the effects of insulin, we directly administered insulin into the cerebral ventricles of STZ-induced diabetic mice by 3 injections of insulin into a catheter placed in the lateral ventricle. Briefly, seven-week-old C57Bl/6 mice were placed in a stereotactic device under anesthesia, and a 26-gauge guide cannula (Plastics One Inc., Roanoke, Va.) was inserted into the right lateral cerebral ventricle (1.0 mm posterior, 1.0 mm lateral, and 2.0 mm ventral to the bregma). A dummy stylet cannula was inserted into each cannula until used. After a 1 week recovery, mice received a single i.p. injection of STZ to induce diabetes. Twelve days later, the mice received three ICV injections of insulin (3 mU in 2 μL) or the same volume of PBS (9 AM, 7 PM and 9 AM the following day) through an internal cannula using a Hamilton microsyringe. Food intake was measured immediately before the ICV injection. Four hours after the last injection, blood glucose levels were measured, and the hypothalami collected.

## N#CC(=C(/N)Sc1ccccc1N)/C(C#N)=C(\N)Sc1ccccc1N [U0126]
Cultured neurons; inhibitor given prior to insulin stimulation
  insulin's effect on Hmgcr induction: partially suppressed

## O=C(CCc1ccc(O)cc1)c1c(O)cc(O)cc1O[C@@H]1O[C@H](CO)[C@@H](O)[C@H](O)[C@H]1O [PHZ, phlorizin]
STZ-diabetic mice [1]; PHZ 0.4 g/kg s.c. twice daily for 10 days
  hyperglycemia (blood glucose): efficiently normalized hyperglycemia
[2]; PHZ 0.4 g/kg s.c. twice daily for 10 days, qPCR
  suppression of SREBP-2 and its downstream genes in the hypothalamus: did not, however, reverse suppression

## insulin
[3]
  expression of neuropeptides involved in feeding behavior (Pomc, Agrp, Npy): partially normalized
[4]; insulin 10-100 nM, 6 hours, qPCR
  stimulation of expression of all cholesterologenic genes: 30 to 270%
[4]; primary cultured glia and neurons, 18 days in vitro, insulin 6 h
  cholesterol synthetic gene expression: induces cholesterol synthetic gene expression
STZ-diabetic mice [1]; three ICV injections of insulin (3 mU), 4 hours after last injection
  blood glucose levels: did not affect blood glucose levels
[2]; subcutaneous insulin pellets for one week, qPCR
  changes in cholesterologenic genes in hypothalamus of diabetic mice: reversed
[2]; three ICV injections of insulin (3 mU in 2 μL), 4 hours after last injection
  suppression of SREBP-2 pathway in the hypothalamus: almost completely normalized
STZ-diabetic mice [5]
  hyperphagia induced by STZ diabetes (food intake): partly reversed the hyperphagia

## Cn1cc(C2=C(c3ccc(Cl)cc3Cl)C(=O)NC2=O)c2ccccc21 [SB216763]
Cultured neurons; GSK3 inhibitor treatment, mimicked insulin's effects
  expression of cholesterol synthetic genes: broad increase in expression of cholesterol synthetic genes
